Results published in patent US9181235B2, “Substituted pyridines for modulating the WNT signaling pathway” (NOVARTIS AG, priority 2010, dated 2015).

System: Wnt signaling
Assay: Wnt-Luc reporter assay for pathway inhibition of Wnt signaling
Type: cell-based, mouse (TM3 Wnt-Luc) or human (293 Wnt-Luc); not stated which
Settings: Wnt-Luc reporter cells co-cultured with L-cell Wnt3a cells, 24 hours
Protocol: This example provides a method that is useful for evaluating test compounds for inhibition of Wnt signaling.
Mouse leydig cell TM3 cells (obtained from American Type Culture Collection, ATCC, Manassas, Va.) are cultured in 1:1 mixture of Ham's F12 medium and Dulbecco's modified Eagle's medium (Gibco/Invitrogen, Carlsbad, Calif.) supplemented with 2.5% FBS (Gibco/Invitrogen, Carlsbad, Calif.) and 5% horse serum (Gibco/Invitrogen, Carlsbad, Calif.), 50 unit/mL penicillin and 50 μg/mL of streptomycin (Gibco/Invitrogen, Carlsbad, Calif.) at 37° C. with 5% CO2 in air atmosphere. TM3 cells in a 10 cm dish are co-transfected with 8 μg of STF-reporter plasmid containing a luciferase gene driven by Wnt-responsive elements and 2 μg of pcDNA3.1-Neo (Gibco/Invitrogen, Carlsbad, Calif.) with 30 μL of FuGENE6 (Roche Diagnostics, Indianapolis, Ind.) following the manufacturer's protocol. Stable cell lines (TM3 Wnt-Luc) were selected with 400 μg/mL of G418 (Gibco/Invitrogen, Carlsbad, Calif.). The TM3 Wnt-Luc cells and L-cell Wnt3a cells (obtained from American Type Culture Collection, ATCC, Manassas, Va.; cultured in Dulbecco's modified Eagle's medium (Gibco/Invitrogen, Carlsbad, Calif.) supplemented with 10% FBS (Gibco/Invitrogen, Carlsbad, Calif.) and 50 unit/mL penicillin and 50 μg/mL of streptomycin (Gibco/Invitrogen, Carlsbad, Calif.) at 37° C. with 5% CO2 in air atmosphere) are trypsinized and co-cultured into a 384-well plate with DMEM medium supplemented with 2% FBS, and treated with different concentrations of a compound of the invention. After 24 hours, the firefly luciferase activities are assayed with the Bright-Glo™ Luciferase Assay System (Promega, Madison, Wis.). The IC50 is measured when the effect of the compound reduces the luminescence signal by 50%.
This example provides another method that is useful for evaluating test compounds for inhibition of Wnt signaling.
Human embryonic kidney 293 cells (obtained from American Type Culture Collection, ATCC, Manassas, Va.) are cultured in DMEM medium (Gibco/Invitrogen, Carlsbad, Calif.) supplemented with 10% FBS (Gibco/Invitrogen, Carlsbad, Calif.), 50 unit/mL penicillin and 50 μg/mL of streptomycin (Gibco/Invitrogen, Carlsbad, Calif.) at 37° C. with 5% CO2 in air atmosphere. 293 cells in a 10 cm dish are co-transfected with 8 μg of STF-reporter plasmid containing a luciferase gene driven by Wnt-responsive elements and 2 μg of pcDNA3.1-Neo (Gibco/Invitrogen, Carlsbad, Calif.) with 30 μL of FuGENE6 (Roche Diagnostics, Indianapolis, Ind.) following the manufacturer's protocol. Stable cell lines (293 Wnt-Luc) were selected with 400 μg/mL of G418 (Gibco/Invitrogen, Carlsbad, Calif.). The 293 Wnt-Luc cells and L-cell Wnt3a cells (obtained from American Type Culture Collection, ATCC, Manassas, Va.) are trypsinized and co-cultured into a 384-well plate with DMEM medium supplemented with 2% FBS, and treated with different concentrations of a compound of the invention. After 24 hours, the firefly luciferase activities are assayed with the Bright-Glo™ Luciferase Assay System (Promega, Madison, Wis.). The IC50 is measured when the effect of the compound reduces the luminescence signal by 50%.

[1] = luciferase signal reduced by 50%

Row | SMILES | IC50 [1] | IC50 (Table 2)
1 | Cc1cc(CNC(=O)c2ccc(-c3cccnn3)nc2)cnc1-c1ccnc(C(F)(F)F)c1 [compound 53, N-({5-methyl-6-[2-(trifluoromethyl)pyridin-4-yl]pyridin-3-yl}methyl)-6-(pyridazin-3-yl)pyridine-3-carboxamide] | 10.2 nM | –
2 | Cc1cc(-c2ccc(CNC(=O)c3ccc(Oc4ccccc4)nc3)cn2)ccn1 [compound 95, N-((2′-methyl-[2,4′-bipyridin]-5-yl)methyl)-6-phenoxynicotinamide] | 420 nM | –
3 | Cc1cc(C(=O)NCc2cnc(-c3ccnc(C(F)(F)F)c3)c(C)c2)ncc1-c1cc(F)ccc1C [compound 82, 5-(5-fluoro-2-methylphenyl)-4-methyl-N-({5-methyl-6-[2-(trifluoromethyl)pyridin-4-yl]pyridin-3-yl}methyl)pyridine-2-carboxamide] | 441 nM | –
4 | Cc1cc(-c2ncc(CNC(=O)c3cc(C)c(-c4cccc(F)c4)cn3)cc2C)ccn1 [compound 97] | – | > 1800 nM
5 | O=C(NCc1ccc(-c2ccnc(F)c2)nc1)c1ccc(-c2ccnnc2)cn1 [compound 37, N-{[6-(2-fluoropyridin-4-yl)pyridin-3-yl]methyl}-5-(pyridazin-4-yl)pyridine-2-carboxamide] | 42 nM | –
6 | Cc1cc(CNC(=O)c2ccc(-c3cnccn3)cn2)cnc1-c1cc[nH]c(=O)c1 [compound 66, N-((5-Methyl-6-(2-oxo-1,2-dihydropyridin-4-yl)pyridin-3-yl)methyl)-5-(pyrazin-2-yl)picolinamide] | 45 nM | –
7 | Cc1c(F)cccc1-c1ccc(C(=O)NCc2ccc(-c3ccnc(C(F)(F)F)c3)nc2)nc1 [compound 64, 5-(3-fluoro-2-methylphenyl)-N-({6-[2-(trifluoromethyl)pyridin-4-yl]pyridin-3-yl}methyl)pyridine-2-carboxamide] | 11 nM | –
8 | Cc1cc(C(=O)NCc2cnc(-c3ccnc(C(F)(F)F)c3)c(C)c2)ccc1-c1ncccc1C [compound 70, 3-methyl-N-({5-methyl-6-[2-(trifluoromethyl)pyridin-4-yl]pyridin-3-yl}methyl)-4-(3-methylpyridin-2-yl)benzamide] | 27 nM | –
9 | CC(=O)N1CCN(c2ccc(C(=O)NCc3ccc(-c4ccnc(C)c4)c(F)c3)nc2)CC1 [compound 22, 5-(4-acetylpiperazin-1-yl)-N-{[3-fluoro-4-(2-methylpyridin-4-yl)phenyl]methyl}pyridine-2-carboxamide] | 8.5 nM | –
10 | O=C(NCc1ccc(N2CCS(=O)(=O)CC2)nc1)c1ccc(-c2cccnc2)nc1 [compound 5, N-((6-(1,1-dioxidothiomorpholino)pyridin-3-yl)methyl)-[2,3′-bipyridine]-5-carboxamide] | 129 nM | –
11 | O=C(NCC1CN(C(=O)c2ccnc(F)c2)C1)c1ccc(-c2cccc(F)c2)nc1 [compound 94, 6-(3-fluorophenyl)-N-({1-[(2-fluoropyridin-4-yl)carbonyl]azetidin-3-yl}methyl)pyridine-3-carboxamide] | 290 nM | –
12 | Cc1cc(C(=O)NCc2cnc(-c3ccnc(C(F)(F)F)c3)c(C)c2)ncc1-c1cccnc1C [compound 98] | – | > 1200 nM

More lines, in order of falling IC50 [1], values ahead:

Row | IC50 [1] | IC50 (Table 2) | SMILES
13 | 8 nM | – | CC(=O)c1cccc(-c2ccc(C(=O)NCc3ccc(-c4ccnc(C)c4)nc3)nc2)c1 [compound 31, 5-(3-acetylphenyl)-N-{[6-(2-methylpyridin-4-yl)pyridin-3-yl]methyl}pyridine-2-carboxamide]
14 | 6.6 nM | – | Cc1cc(CNC(=O)c2ccn(-c3cccc(F)c3)c(=O)c2)cnc1-c1ccnc(C(F)(F)F)c1 [compound 90, 1-(3-fluorophenyl)-N-({5-methyl-6-[2-(trifluoromethyl)pyridin-4-yl]pyridin-3-yl}methyl)-2-oxo-1,2-dihydropyridine-4-carboxamide]
15 | 6.4 nM | – | Cn1cc(-c2ccc(CNC(=O)c3ccc(-c4cnccn4)cc3)cc2F)ccc1=O [compound 21, N-(3-fluoro-4-(1-methyl-6-oxo-1,6-dihydropyridin-3-yl)benzyl)-4-(pyrazin-2-yl)benzamide]
16 | 4.2 nM | – | CC(=O)N1CCN(c2ccc(C(=O)NCc3cnc(-c4ccnc(C(F)(F)F)c4)c(F)c3)cn2)CC1 [compound 46, 6-(4-Acetylpiperazin-1-yl)-N-((3-fluoro-2′-(trifluoromethyl)-[2,4′-bipyridin]-5-yl)methyl)nicotinamide]
17 | 3 nM | – | Cc1cc(-c2ccc(CNC(=O)c3ccc(-c4ccccc4)c(C)c3)cn2)ccn1 [compound 50, 3-methyl-N-{[6-(2-methylpyridin-4-yl)pyridin-3-yl]methyl}-4-phenylbenzamide]
18 | 2.7 nM | – | CC(=O)N1CCN(c2ccc(C(=O)NCc3cnc(-c4ccnc(C(F)(F)F)c4)c(F)c3)nc2)CC1 [compound 84, 5-(4-Acetylpiperazin-1-yl)-N-((3-fluoro-2′-(trifluoromethyl)-2,4′-bipyridin-5-yl)methyl)picolinamide]
19 | 2.5 nM | – | O=C(NCc1cnc(-c2ccnnc2)c(F)c1)c1ccc(-c2cnccn2)cn1 [compound 71, N-{[5-fluoro-6-(pyridazin-4-yl)pyridin-3-yl]methyl}-5-(pyrazin-2-yl)pyridine-2-carboxamide]
20 | 0.95 nM | – | O=C(NCc1ccc(-c2ccnnc2)cc1)c1ccc(-c2cccc(F)c2)cc1 [compound 2, 4-(3-fluorophenyl)-N-{[4-(pyridazin-4-yl)phenyl]methyl}benzamide]
21 | 0.9 nM | – | O=C(NCc1ccc(-c2ccnc(C(F)(F)F)c2)cc1)c1ccc(-c2cnccn2)cc1 [compound 28, 4-(Pyrazin-2-yl)-N-(4-(2-(trifluoromethyl)pyridin-4-yl)benzyl)benzamide]
22 | 0.9 nM | – | O=C(NCc1ccc(N2CCS(=O)(=O)CC2)nc1)c1ccc(-c2cccc(F)c2)cn1 [compound 6, 5-(3-Fluorophenyl)-N-((6-(1,1-dioxide-thiomorpholino)pyridin-3-yl)methyl)picolinamide]
23 | 0.8 nM | – | Cc1cc(CNC(=O)c2ccc(-c3cnccn3)cn2)cnc1-c1ccnc(C(F)(F)F)c1 [compound 55, N-((3-Methyl-2′-(trifluoromethyl)-2,4′-bipyridin-5-yl)methyl)-5-(pyrazin-2-yl)picolinamide]
24 | 0.62 nM | – | Cc1cc(-c2ncc(CNC(=O)c3ccc(-c4cnccn4)nc3)cc2F)ccn1 [compound 61, N-{[5-fluoro-6-(2-methylpyridin-4-yl)pyridin-3-yl]methyl}-6-(pyrazin-2-yl)pyridine-3-carboxamide]
25 | 0.5 nM | – | Cc1cc(-c2ccc(CNC(=O)c3ccc(-c4cccc(F)c4)cn3)cn2)ccn1 [compound 26, 5-(3-fluorophenyl)-N-{[6-(2-methylpyridin-4-yl)pyridin-3-yl]methyl}pyridine-2-carboxamide]
26 | 0.29 nM | – | Cc1cc(-c2ncc(CNC(=O)c3ccc(-c4cccc(F)c4)cn3)cc2F)ccn1 [compound 59, N-{[5-fluoro-6-(2-methylpyridin-4-yl)pyridin-3-yl]methyl}-5-(3-fluorophenyl)pyridine-2-carboxamide]
27 | 0.26 nM | – | Cc1cc(-c2ncc(CNC(=O)c3ccc(-c4cnccn4)cn3)cc2F)ccn1 [compound 60, N-{[5-fluoro-6-(2-methylpyridin-4-yl)pyridin-3-yl]methyl}-5-(pyrazin-2-yl)pyridine-2-carboxamide]
28 | 0.17 nM | – | Cc1cc(CNC(=O)c2ccc(-c3cccc(F)c3)cn2)cnc1-c1ccnc(F)c1 [compound 30, N-((2′-fluoro-3-methyl-2,4′-bipyridin-5-yl)methyl)-5-(3-fluorophenyl)picolinamide]
29 | 0.1 nM | – | Cc1cc(-c2ccc(CNC(=O)c3ccc(-c4ccccn4)cc3)cc2)ccn1 [compound 13, N-(4-(2-methylpyridin-4-yl)benzyl)-4-(pyridin-2-yl)benzamide]
30 | 0.06 nM | – | Cc1cc(-c2ccc(CNC(=O)c3ccc(-c4cnccn4)cc3)cc2)ccn1 [compound 17, N-{[4-(2-methylpyridin-4-yl)phenyl]methyl}-4-(pyrazin-2-yl)benzamide]
